Assay results reported in US20200397807A1, “NICOTINYL RIBOSIDE COMPOUNDS AND THEIR USES” (MitoPower, LLC, priority 2019, published 2020).
Counter-ions that a name gives are not always drawn. Like-named read-outs stand apart in the source and are kept apart here.

Key:
[1] = tested on: HepG2 cells
[2] = led to fatally high body temperature; cited from earlier work
[3] = tested on: HepG2 cells; assay: Glucose concentration in the media; format: cell-based
[4] = tested on: HepG2 cells; assay: Lactate released into the media; format: cell-based
[5] = tested on: HepG2 cells; remark: listed apart in the source
[6] = tested on: HepG2 cells; assay: MNNG-induced cytotoxicity / cytoprotection (CellTiter-Blue Cell Viability Assay); format: cell-based; conditions: MNNG 600 μM, compound 1 mM
[7] = tested on: Jurkat cells; conditions: MNNG 100 μM, compound 1 mM
[8] = tested on: Jurkat cells; assay: Total cellular NAD^+ level after MNNG-induced depletion (NAD/NADH Glo assay); format: cell-based; conditions: for % NAD^+ Repletion: MNNG 100 μM, compound 1 mM; for increase of NAD^+ level: 100 μM MNNG 30 min, wash, NR 100 μM or/and olaparib 5 nM 3.5 hr
[9] = tested on: HepG2 cells; assay: as above; format: cell-based; conditions: MNNG 100 μM, compound 1 mM
[10] = tested on: Jurkat cells; assay: NAD^+ assay (total cellular NAD^+ by HPLC/LCMS), with or without MNNG; conditions: Jurkat not treated with MNNG; NRH vs. NR 100 μM; 4 hr
[11] = 4 g of oral NTZ; healthy adults; cited from earlier work

O=[N+]([O-])c1ccc(O)c([N+](=O)[O-])c1 [DNP, 2,4-Dinitrophenol]
activity of lactate dehydrogenase (LDH) released into the media [1]: markedly increased
dose causing excessive systemic uncoupling, fold greater than minimum effective dose for reducing body weight [2]: 3-10 fold
concentration of glucose in the media [3]: significantly reduced
concentration of lactate released into the media [4]: markedly increased
% viability of HepG2 cells [5]: significantly reduced

NC(=O)c1ccc[n+]([C@@H]2O[C@H](COC(=O)CCC(=O)O)[C@@H](O)[C@H]2O)c1 [MP-42, 3-Carboxamide-1-((2R,3R,4S,5R)-5-(((3-carboxypropanoyl)oxy)methyl)-3,4-dihydroxytetrahydrofuran-2-yl)pyridin-1-ium Trifluoroacetate]
% Cytoprotection [6]: 9.9%
% Cytoprotection [7]: 4.5%
% NAD^+ Repletion [8]: 8.2%
% NAD^+ Repletion [9]: 23.7%

COC(=O)CCC(=O)OC[C@H]1O[C@@H]([n+]2cccc(C(N)=O)c2)[C@H](O)[C@@H]1O [MP-43, 3-Carboxamide-1-((2R,3R,4S,5R)-3,4-dihydroxy-5-(((4-methoxy-4-oxobutanoyl)oxy)methyl)tetrahydrofuran-2-yl)pyridin-1-ium Trifluoroacetate]
% Cytoprotection [6]: 5.7%
% Cytoprotection [7]: 6.3%
% NAD^+ Repletion [8]: 12.9%
% NAD^+ Repletion [9]: 31.1%

NC(=O)c1ccc[n+]([C@@H]2O[C@H](CO)[C@@H](O)[C@H]2O)c1 [NR, nicotinamide riboside, reference compound]
increase of NAD^+ level [8]: 43%

NC(=O)C1=CN([C@@H]2O[C@H](CO)[C@@H](O)[C@H]2O)C=CC1 [NRH]
concentration of glucose in the media ([3]; 50 μM DNP, 100 μM NRH or both, 4 hr, versus untreated, FIG. 29): did not significantly affect
concentration of lactate released into the media ([4]; 50 μM DNP, 100 μM NRH or both, 4 hr, versus untreated, FIG. 28): did not significantly affect
NAD^+ level, NRH alone versus NR alone [10]: markedly higher NAD^+ level than NR alone

CC(=O)Oc1ccccc1C(=O)Nc1ncc([N+](=O)[O-])s1 [NTZ, nitazoxanide]
adverse effect [11]: does not cause any significant adverse effect

O=C(c1cc(Cc2n[nH]c(=O)c3ccccc23)ccc1F)N1CCN(C(=O)C2CC2)CC1 [olaparib, reference compound]
increase of NAD^+ level [8]: 8%
